Consider 19 compounds from PubChem BioAssay AID248 (DTP/NCI, 2004).

“And” between values parts separate entries of the source, which are not always exact repeats. Equal entries are not always repeated. Inconclusive results and toxic doses are left out.

This assay deals with L1210 leukemia ip in BDF1 mice, survival T/C. The experiment in a line: NCI In Vivo Anticancer Drug Screen. Data for tumor model L1210 Leukemia (intraperitoneal) in B6D2F1 (BDF1) mice. The note with it: endpoint: mean survival time, higher = longer survival. In outline: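 Value reflects the ratio of survival in compound-treated mice to survival in vehicle-treated controls, with both groups carrying the same transplanted tumor.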

Setting [1] is: dose: 75.0 mg/kg/injection, schedule: Q01DX001 (ip), vehicle: saline.
[2] abbreviates: dose: 100.0 mg/kg/injection, schedule: Q01DX009 (ip), vehicle: Klucel (hydroxypropylcellulose) (HPC).
The mark [3] stands for this setting: dose: 100.0 mg/kg/injection, schedule: Q01DX009 (ip), vehicle: saline.
Setting [4] is: dose: 100.0 mg/kg/injection, schedule: Q04DX003 (ip), vehicle: Klucel (hydroxypropylcellulose) (HPC).
Setting [5] is: dose: 150.0 mg/kg/injection, schedule: Q01DX001 (ip), vehicle: saline.
[6] abbreviates: dose: 200.0 mg/kg/injection, schedule: Q01DX009 (ip), vehicle: Klucel (hydroxypropylcellulose) (HPC).
Where [7] appears, read: dose: 200.0 mg/kg/injection, schedule: Q01DX009 (ip), vehicle: saline.
Where [8] appears, read: dose: 200.0 mg/kg/injection, schedule: Q04DX003 (ip), vehicle: Klucel (hydroxypropylcellulose) (HPC).
Where [9] appears, read: dose: 300.0 mg/kg/injection, schedule: Q01DX001 (ip), vehicle: saline.
Setting [10] is: dose: 400.0 mg/kg/injection, schedule: Q04DX003 (ip), vehicle: Klucel (hydroxypropylcellulose) (HPC).
Where [11] appears, read: dose: 100.0 mg/kg/injection, schedule: Q01DX001 (ip), vehicle: saline.
[12] abbreviates: dose: 200.0 mg/kg/injection, schedule: Q01DX001 (ip), vehicle: saline.
Where [13] appears, read: dose: 400.0 mg/kg/injection, schedule: Q01DX009 (ip), vehicle: Klucel (hydroxypropylcellulose) (HPC).
[14] abbreviates: dose: 100.0 mg/kg/injection, schedule: Q01DX009 (ip), vehicle: saline with Tween-80.
The mark [15] stands for this setting: dose: 200.0 mg/kg/injection, schedule: Q01DX009 (ip), vehicle: saline with Tween-80.
Where [16] appears, read: dose: 400.0 mg/kg/injection, schedule: Q01DX009 (ip), vehicle: saline with Tween-80.

In the case of `CC(C)NCC(O)c1ccc(O)c(O)c1` (stereo not drawn), the T/C was 103 % of control (dose: 50.0 mg/kg/injection, schedule: Q01DX009 (ip), vehicle: saline); 105 % of control under setting [1]; 108 % of control and 111 % of control under setting [2]; 110 % of control under setting [3]; 104 % of control under setting [4]; 100 % of control under setting [5]. Further, the T/C reads like this: under setting [6], 113 % of control; under setting [7], 114 % of control; under setting [8], 100 % of control; under setting [9], 123 % of control; under setting [10], 100 % of control.
Regarding `N#CC(c1cnc2ccccc2n1)c1cccc2ccccc12` (stereo not drawn), the T/C was 94 % of control under setting [11]; 92 % of control under setting [12]; 97 % of control (dose: 400.0 mg/kg/injection, schedule: Q01DX001 (ip), vehicle: saline).
`CC(CC(=O)c1cc(Cl)ccc1O)CC(C)(C)C` (stereo not drawn): the T/C is 114 % of control (dose: 75.0 mg/kg/injection, schedule: Q01DX009 (ip), vehicle: Klucel (hydroxypropylcellulose) (HPC)); 97 % of control (dose: 100.0 mg/kg/injection, schedule: Q04DX002 (ip), vehicle: Klucel (hydroxypropylcellulose) (HPC)); 97 % of control (dose: 150.0 mg/kg/injection, schedule: Q01DX009 (ip), vehicle: Klucel (hydroxypropylcellulose) (HPC)); 93 % of control (dose: 200.0 mg/kg/injection, schedule: Q04DX002 (ip), vehicle: Klucel (hydroxypropylcellulose) (HPC)); 100 % of control (dose: 300.0 mg/kg/injection, schedule: Q01DX009 (ip), vehicle: Klucel (hydroxypropylcellulose) (HPC)); 104 % of control (dose: 400.0 mg/kg/injection, schedule: Q04DX002 (ip), vehicle: Klucel (hydroxypropylcellulose) (HPC)).
With `CSCc1ccc([N+](=O)[O-])cc1`, the T/C under setting [2] was 103 % of control; the T/C under setting [4] was 101 % of control; the T/C under setting [6] is 103 % of control; the T/C under setting [8] is 106 % of control; the T/C under setting [13] is 116 % of control; the T/C under setting [10] is 95 % of control.
`NC1=NC(=O)/C(=C/c2ccco2)S1`: the T/C under setting [1] was 98 % of control, the T/C under setting [5] was 93 % of control and the T/C under setting [9] was 90 % of control.
With `CS(=N)(=O)CC(N)C(=O)O` (stereo not drawn), the T/C under setting [3] is 95 % of control; the T/C under setting [7] was 114 % of control; the T/C (dose: 400.0 mg/kg/injection, schedule: Q01DX009 (ip), vehicle: saline) was 95 % of control.
As for `O=NN(CCO)C(=O)Nc1ccc(NC(=O)N(CCO)N=O)cc1`, the T/C (dose: 9.0 mg/kg/injection, schedule: Q01DX001 (ip), vehicle: carboxymethylcellulose (CMC)) was 106 % of control; the T/C (dose: 18.0 mg/kg/injection, schedule: Q01DX001 (ip), vehicle: carboxymethylcellulose (CMC)) was 108 % of control; the T/C (dose: 26.0 mg/kg/injection, schedule: Q01DX001 (ip), vehicle: carboxymethylcellulose (CMC)) was 114 % of control; the T/C (dose: 40.0 mg/kg/injection, schedule: Q01DX001 (ip), vehicle: carboxymethylcellulose (CMC)) is 111 % of control; the T/C (dose: 60.0 mg/kg/injection, schedule: Q01DX001 (ip), vehicle: carboxymethylcellulose (CMC)) was 111 % of control.
In the case of `CCC[CH2][Sn]([S][Sn]([CH2]CCC)([c]1ccccc1)[c]1ccccc1)([c]1ccccc1)[c]1ccccc1`, the T/C (dose: 100.0 mg/kg/injection, schedule: Q04DX002 (ip), vehicle: saline with Tween-80) was 96 % of control and the T/C (dose: 200.0 mg/kg/injection, schedule: Q04DX002 (ip), vehicle: saline with Tween-80) is 103 % of control.
In the case of `NCCc1cc(O)c(O)c(S(=O)(=O)c2ccc(N)cc2)c1`, the T/C is, setting by setting: (dose: 75.0 mg/kg/injection, schedule: Q01DX009 (ip), vehicle: saline) 107 % of control; (dose: 150.0 mg/kg/injection, schedule: Q01DX009 (ip), vehicle: saline) 105 % of control.
On to `COc1cccc(/C=C/C(=O)c2ccc(Cl)cc2)c1OC`, for which the T/C under setting [14] was 101 % of control; the T/C (dose: 100.0 mg/kg/injection, schedule: Q04DX003 (ip), vehicle: saline with Tween-80) is 96 % of control; the T/C under setting [15] was 88 % of control; the T/C (dose: 200.0 mg/kg/injection, schedule: Q04DX003 (ip), vehicle: saline with Tween-80) was 91 % of control; the T/C under setting [16] is 87 % of control; the T/C (dose: 400.0 mg/kg/injection, schedule: Q04DX003 (ip), vehicle: saline with Tween-80) is 90 % of control.
In the case of `Nc1nc(N)c2nc(CNc3ccc(S(=O)(=O)NC(CCC(=O)O)C(=O)O)cc3)cnc2n1` (stereo not drawn), the T/C is 114 % of control (dose: 20.0 mg/kg/injection, schedule: Q01DX009 (ip), vehicle: Klucel (hydroxypropylcellulose) (HPC)); 119 % of control (dose: 40.0 mg/kg/injection, schedule: Q01DX009 (ip), vehicle: Klucel (hydroxypropylcellulose) (HPC)); 124 % of control (dose: 80.0 mg/kg/injection, schedule: Q01DX009 (ip), vehicle: Klucel (hydroxypropylcellulose) (HPC)); 120 % of control under setting [6].
For the compound `CCN(CC)CCOC(=O)c1[nH]cnc1/N=N\N(C)C`, the T/C under setting [11] is 104 % of control and the T/C under setting [12] was 98 % of control.
For `C[n+]1ccc(Nc2ccc(NC(=O)c3ccc(Nc4cc[n+](C)c5ccc([N+](=O)[O-])cc45)cc3)cc2)cc1`, the T/C was 99 % of control (dose: 1.0 mg/kg/injection, schedule: Q01DX009 (ip), vehicle: water); 112 % of control (dose: 2.0 mg/kg/injection, schedule: Q01DX009 (ip), vehicle: water); 119 % of control (dose: 4.0 mg/kg/injection, schedule: Q01DX009 (ip), vehicle: water); 116 % of control (dose: 8.0 mg/kg/injection, schedule: Q01DX009 (ip), vehicle: water); 192 % of control (dose: 16.0 mg/kg/injection, schedule: Q01DX009 (ip), vehicle: water); 262 % of control (dose: 32.0 mg/kg/injection, schedule: Q01DX009 (ip), vehicle: water). The T/C runs as follows: (dose: 100.0 mg/kg/injection, schedule: Q04DX003 (ip), vehicle: saline) 201 % of control and 219 % of control; (dose: 200.0 mg/kg/injection, schedule: Q04DX003 (ip), vehicle: saline) 213 % of control; (dose: 400.0 mg/kg/injection, schedule: Q04DX003 (ip), vehicle: saline) 150 % of control and 153 % of control.
`CCOC(=O)Oc1c(Cl)cc(S(=O)(=O)F)cc1Cl`: the T/C was 101 % of control (dose: 100.0 mg/kg/injection, schedule: Q04DX003 (ip), vehicle: carboxymethylcellulose (CMC)); 108 % of control (dose: 200.0 mg/kg/injection, schedule: Q04DX003 (ip), vehicle: carboxymethylcellulose (CMC)); 90 % of control (dose: 400.0 mg/kg/injection, schedule: Q04DX003 (ip), vehicle: carboxymethylcellulose (CMC)).
Regarding `O=S(=O)(NCCBr)c1ccccc1`, the T/C is, setting by setting: (dose: 75.0 mg/kg/injection, schedule: Q01DX001 (ip), vehicle: carboxymethylcellulose (CMC)) 101 % of control; (dose: 150.0 mg/kg/injection, schedule: Q01DX001 (ip), vehicle: carboxymethylcellulose (CMC)) 114 % of control; (dose: 300.0 mg/kg/injection, schedule: Q01DX001 (ip), vehicle: carboxymethylcellulose (CMC)) 108 % of control.
In the case of `CCOC(=O)c1scnc1C`, the T/C was 89 % of control under setting [2]; 95 % of control under setting [4]; 95 % of control under setting [6]; 95 % of control under setting [8]; 92 % of control under setting [13]; 95 % of control under setting [10].
`Nc1cc(N)c([N+](=O)[O-])cc1[N+](=O)[O-]`: the T/C is 98 % of control under setting [14], 93 % of control under setting [15] and 98 % of control under setting [16].
In the case of `Cn1c(N)c(N=Cc2ccc(C=Nc3c(N)n(C)c(=O)n(C)c3=O)cc2)c(=O)n(C)c1=O`, the T/C is, setting by setting: (dose: 50.0 mg/kg/injection, schedule: Q01DX001 (ip), vehicle: carboxymethylcellulose (CMC)) 88 % of control; (dose: 200.0 mg/kg/injection, schedule: Q01DX001 (ip), vehicle: carboxymethylcellulose (CMC)) 96 % of control; (dose: 400.0 mg/kg/injection, schedule: Q01DX001 (ip), vehicle: carboxymethylcellulose (CMC)) 90 % of control.
In the case of `COc1cccc2c1OC1(N3CCOCC3)CCCCC1C2C[N+](=O)[O-]` (stereo not drawn), the T/C was 97 % of control under setting [2], 105 % of control under setting [6] and 94 % of control under setting [13].
